“And” between values parts separate entries of the source, which are not always exact repeats. Equal entries are not always repeated.
Conditions: Fluid (supercritical or subcritical phases), Coaxial cylinder method

C=C [ethene]
Conditions | thermal conductivity
285.04 K, 6160 kPa | 0.06936 W/m/K
285.04 K, 6760 kPa | 0.07168 W/m/K
285.04 K, 7250 kPa | 0.07341 W/m/K
285.04 K, 8160 kPa | 0.07598 W/m/K
285.04 K, 9010 kPa | 0.07839 W/m/K
285.04 K, 9690 kPa | 0.0804 W/m/K
285.04 K, 9800 kPa | 0.08072 W/m/K
285.04 K, 9810 kPa | 0.08067 W/m/K
285.04 K, 9830 kPa | 0.0807 W/m/K
285.04 K, 9850 kPa | 0.08058 W/m/K
285.04 K, 9900 kPa | 0.08077 W/m/K
285.04 K, 9920 kPa | 0.08085 W/m/K
285.04 K, 9950 kPa | 0.08076 W/m/K and 0.08065 W/m/K
285.04 K, 10000 kPa | 0.08079 W/m/K
285.04 K, 10180 kPa | 0.08121 W/m/K
285.04 K, 10350 kPa | 0.08166 W/m/K
285.04 K, 10570 kPa | 0.08194 W/m/K
288.24 K, 4580 kPa | 0.03085 W/m/K
288.24 K, 5100 kPa | 0.03767 W/m/K
288.24 K, 5360 kPa | 0.04634 W/m/K
288.24 K, 5510 kPa | 0.05465 W/m/K
288.24 K, 5570 kPa | 0.06007 W/m/K
288.24 K, 5630 kPa | 0.06943 W/m/K
288.24 K, 5680 kPa | 0.07371 W/m/K
288.24 K, 5790 kPa | 0.0746 W/m/K
288.24 K, 5920 kPa | 0.06841 W/m/K
288.24 K, 6000 kPa | 0.06651 W/m/K
288.24 K, 6240 kPa | 0.06542 W/m/K
288.24 K, 6570 kPa | 0.06758 W/m/K
288.24 K, 7140 kPa | 0.06951 W/m/K
294.62 K, 5100 kPa | 0.03346 W/m/K
294.62 K, 5370 kPa | 0.03618 W/m/K
294.62 K, 6200 kPa | 0.05841 W/m/K
294.62 K, 6290 kPa | 0.06125 W/m/K
294.62 K, 6530 kPa | 0.06505 W/m/K
294.62 K, 6690 kPa | 0.066 W/m/K
294.62 K, 6770 kPa | 0.06592 W/m/K
294.62 K, 6870 kPa | 0.06592 W/m/K
294.62 K, 6950 kPa | 0.06591 W/m/K
294.62 K, 7030 kPa | 0.0659 W/m/K
294.62 K, 7130 kPa | 0.06589 W/m/K
294.62 K, 7360 kPa | 0.06665 W/m/K
294.62 K, 7490 kPa | 0.06627 W/m/K
294.62 K, 7670 kPa | 0.06623 W/m/K
294.62 K, 7690 kPa | 0.06625 W/m/K
294.62 K, 8210 kPa | 0.06804 W/m/K
294.62 K, 8570 kPa | 0.06916 W/m/K
294.62 K, 9220 kPa | 0.07111 W/m/K
294.62 K, 9740 kPa | 0.07276 W/m/K
294.62 K, 10280 kPa | 0.07482 W/m/K
294.62 K, 10840 kPa | 0.07574 W/m/K
301.6 K, 1010 kPa | 0.02196 W/m/K
301.6 K, 1900 kPa | 0.02294 W/m/K
301.6 K, 2940 kPa | 0.02469 W/m/K
301.6 K, 3920 kPa | 0.02736 W/m/K
301.6 K, 5010 kPa | 0.03136 W/m/K
301.6 K, 5560 kPa | 0.0359 W/m/K
301.6 K, 5610 kPa | 0.03586 W/m/K
301.6 K, 6120 kPa | 0.0417 W/m/K and 0.04209 W/m/K
301.6 K, 6550 kPa | 0.0488 W/m/K
301.6 K, 6780 kPa | 0.05244 W/m/K
301.6 K, 6930 kPa | 0.05667 W/m/K
301.6 K, 7100 kPa | 0.05988 W/m/K

Reference: the NIST ThermoML archive (doi:10.1016/j.fluid.2017.11.013)
